Source: PMC4899218 (Molecular microbiology, 2016)
pKd: −log10 of the molar value.

Assays:
[1] = biological target: EmoA (EDTA-degrading bacterium BNC1, UniProt Q9F9T3); experiment: ITC; type: binding
[2] = biological target: EDTA monooxygenase (EmoA) from Chelativorans sp. BNC1 (Chelativorans sp. BNC1); experiment: SEC-MALS

| pKd [1] | stoichiometry N [2] | Molecule |
| --- | --- | --- |
| 6.48 |  | Cc1cc2nc3c(=O)[nH]c(=O)nc-3n(C[C@H](O)[C@H](O)[C@H](O)COP(=O)(O)O)c2cc1C [FMN] |
|  | 2 | EDTA monooxygenase (EmoA) from Chelativorans sp. BNC1 (enzyme) |
